Source: patent US20250361230A1, “LATS Inhibitors and Uses Thereof” (The USA, as Represented by the Secretary, Dept. of Heath …, priority 2022, published 2025)
pIC50: −log10 of the molar value. Where two headings read alike, the source gives them in different places.

How the values were obtained:
Format in all cases: biochemical
LATS1 = target: T1, LATS1 (Homo sapiens, UniProt O95835); experiment: RBC HotSpot kinase assay (33P-ATP, P81 filter-binding), LATS1; conditions: read-out: LATS1 IC50
T1 sequence (O95835 1-1130): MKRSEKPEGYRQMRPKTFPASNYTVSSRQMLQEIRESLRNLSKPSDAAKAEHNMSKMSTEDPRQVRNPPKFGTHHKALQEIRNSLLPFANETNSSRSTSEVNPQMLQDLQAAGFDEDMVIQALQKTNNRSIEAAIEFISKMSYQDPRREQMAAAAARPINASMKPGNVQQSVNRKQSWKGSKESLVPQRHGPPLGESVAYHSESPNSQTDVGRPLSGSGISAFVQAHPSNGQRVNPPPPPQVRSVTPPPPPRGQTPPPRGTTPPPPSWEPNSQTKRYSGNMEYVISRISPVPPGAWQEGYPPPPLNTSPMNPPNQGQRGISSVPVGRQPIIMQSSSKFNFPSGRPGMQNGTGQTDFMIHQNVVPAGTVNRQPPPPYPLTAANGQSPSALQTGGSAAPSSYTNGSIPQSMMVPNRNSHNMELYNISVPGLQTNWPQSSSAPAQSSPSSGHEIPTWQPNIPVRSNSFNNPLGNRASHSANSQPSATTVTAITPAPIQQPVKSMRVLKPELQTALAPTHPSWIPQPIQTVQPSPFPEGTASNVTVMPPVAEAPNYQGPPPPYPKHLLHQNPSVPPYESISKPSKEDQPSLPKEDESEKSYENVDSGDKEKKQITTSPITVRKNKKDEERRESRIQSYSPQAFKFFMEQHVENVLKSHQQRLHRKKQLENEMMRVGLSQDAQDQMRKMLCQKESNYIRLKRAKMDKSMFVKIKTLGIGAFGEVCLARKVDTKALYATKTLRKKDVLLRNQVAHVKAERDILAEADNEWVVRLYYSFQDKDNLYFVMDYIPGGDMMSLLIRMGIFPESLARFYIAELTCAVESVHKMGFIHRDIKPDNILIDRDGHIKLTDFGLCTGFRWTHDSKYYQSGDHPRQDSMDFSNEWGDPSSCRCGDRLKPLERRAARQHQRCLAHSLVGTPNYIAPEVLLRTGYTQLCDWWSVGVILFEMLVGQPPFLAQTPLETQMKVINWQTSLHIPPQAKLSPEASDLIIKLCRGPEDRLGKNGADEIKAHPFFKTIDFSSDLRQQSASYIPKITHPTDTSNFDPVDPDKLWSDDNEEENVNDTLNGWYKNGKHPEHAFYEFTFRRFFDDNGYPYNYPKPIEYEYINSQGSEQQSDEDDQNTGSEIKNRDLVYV
Summary of the method: (§1)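 Kinase in Hepes pH 7.5 buffer with Mg2+, EGTA, Brij35, BSA, vanadate, DTT and 1% DMSO, plus required cofactors and substrate, was preincubated 20 min at room temperature with compound. Reaction was started with 33P-ATP and run 2 h, then detected by P81 filter binding. IC50 (nM) came from 10-point singlet curves.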

AKT = AKT (Homo sapiens, UniProt P31749); experiment: RBC HotSpot kinase assay (33P-ATP, P81 filter-binding), AKT; conditions: read-out: AKT IC50
Sequence of AKT (P31749 whole entry): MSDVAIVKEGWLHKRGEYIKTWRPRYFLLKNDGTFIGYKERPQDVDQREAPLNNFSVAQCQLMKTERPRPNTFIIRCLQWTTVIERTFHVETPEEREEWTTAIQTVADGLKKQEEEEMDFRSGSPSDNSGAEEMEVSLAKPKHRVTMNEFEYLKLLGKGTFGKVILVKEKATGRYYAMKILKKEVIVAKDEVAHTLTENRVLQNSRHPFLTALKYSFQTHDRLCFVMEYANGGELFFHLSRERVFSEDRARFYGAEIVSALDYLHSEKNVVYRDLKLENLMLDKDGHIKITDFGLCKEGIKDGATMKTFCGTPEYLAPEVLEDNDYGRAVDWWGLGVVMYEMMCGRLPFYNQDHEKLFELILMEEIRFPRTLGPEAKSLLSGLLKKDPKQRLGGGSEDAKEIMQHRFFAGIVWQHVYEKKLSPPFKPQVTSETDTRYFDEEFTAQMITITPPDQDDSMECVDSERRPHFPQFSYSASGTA
Summary of the method: as §1

LATS2 = target: T2, LATS2 (Homo sapiens, UniProt Q9NRM7); experiment: RBC HotSpot kinase assay (33P-ATP, P81 filter-binding), LATS2; conditions: read-out: LATS2 IC50
T2 sequence (Q9NRM7 1-1088): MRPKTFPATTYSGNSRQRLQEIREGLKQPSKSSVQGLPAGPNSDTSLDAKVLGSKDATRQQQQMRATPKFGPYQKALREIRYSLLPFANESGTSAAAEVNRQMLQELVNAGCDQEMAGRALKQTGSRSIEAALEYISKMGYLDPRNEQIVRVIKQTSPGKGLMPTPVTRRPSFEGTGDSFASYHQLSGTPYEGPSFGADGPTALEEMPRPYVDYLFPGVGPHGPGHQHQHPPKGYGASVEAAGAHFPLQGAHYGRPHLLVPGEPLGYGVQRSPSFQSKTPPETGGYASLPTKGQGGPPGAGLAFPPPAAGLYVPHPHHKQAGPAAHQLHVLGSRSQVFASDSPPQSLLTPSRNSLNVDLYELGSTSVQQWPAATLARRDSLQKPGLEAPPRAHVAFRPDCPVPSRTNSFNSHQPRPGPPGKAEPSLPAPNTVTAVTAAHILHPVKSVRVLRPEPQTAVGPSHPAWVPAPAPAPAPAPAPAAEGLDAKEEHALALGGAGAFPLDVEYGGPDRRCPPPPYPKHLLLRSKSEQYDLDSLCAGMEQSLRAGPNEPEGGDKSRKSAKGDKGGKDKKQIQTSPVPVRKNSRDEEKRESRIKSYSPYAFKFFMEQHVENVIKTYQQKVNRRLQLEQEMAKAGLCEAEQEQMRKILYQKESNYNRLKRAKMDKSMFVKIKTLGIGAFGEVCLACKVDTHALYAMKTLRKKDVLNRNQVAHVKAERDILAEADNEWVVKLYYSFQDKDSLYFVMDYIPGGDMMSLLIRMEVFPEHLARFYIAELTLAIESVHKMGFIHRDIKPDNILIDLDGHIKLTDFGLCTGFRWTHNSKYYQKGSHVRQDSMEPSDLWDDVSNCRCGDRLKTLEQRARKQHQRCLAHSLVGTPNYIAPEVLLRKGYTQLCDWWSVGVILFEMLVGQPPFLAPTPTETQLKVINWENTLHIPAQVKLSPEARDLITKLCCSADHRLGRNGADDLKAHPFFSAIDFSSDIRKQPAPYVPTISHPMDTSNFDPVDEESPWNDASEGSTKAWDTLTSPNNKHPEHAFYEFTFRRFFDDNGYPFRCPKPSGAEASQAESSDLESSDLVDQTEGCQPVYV
Summary of the method: as §1

[1] = Table 28, biochemical kinase assay
[2] = Table 32, biochemical kinase assay

| pIC50 (LATS1; [1]) | pIC50 (AKT; [1]) | pIC50 (LATS2; [1]) | SMILES | also measured |
| --- | --- | --- | --- | --- |
| 7.01 | < 6.00 | 7.10 | C[C@@H]1CN(C2COC2)C[C@H](C)C1(O)c1cnc(-c2ccnc3[nH]cc(F)c23)cc1F (stereo partly drawn) [Compound 36, (3S,5R)-4-(4-fluoro-6-(3-fluoro-1H-pyrrolo[2,3-b]pyridin-4-yl)pyridin-3-yl)-3,5-dimethyl-1-(oxetan-3-yl)piperidin-4-ol] | – |
| 7.16 | 5.27 | 7.00 | CC(=O)N1CCC(c2ccc(-c3ccnc4[nH]cc(F)c34)cc2Cl)CC1 [Compound 171, 1-(4-(2-chloro-4-(3-fluoro-1H-pyrrolo[2,3-b]pyridin-4-yl)phenyl)piperidin-1-yl)ethan-1-one] | – |
| 8.06 | 6.24 | 8.55 | CNCC(=O)N1C[C@@H](C)[C@](O)(c2c(C)cc(-c3ccnc4[nH]cc(F)c34)cc2F)[C@@H](C)C1 [Compound 67, 1-((3S,4s,5R)-4-(2-fluoro-4-(3-fluoro-1H-pyrrolo[2,3-b]pyridin-4-yl)-6-methylphenyl)-4-hydroxy-3,5-dimethylpiperidin-1-yl)-2-(methylamino) ethan-1-one] | – |
| – | – | – | Cc1cc(-c2ccnc3[nH]cc(C#N)c23)cc(F)c1[C@@]1(O)[C@H](C)CN(C(=O)[C@@H](CO)N(C)C)C[C@@H]1C [Compound 2021, 4-(4-((3S,4S,5R)-1-(dimethyl-D-seryl)-4-hydroxy-3,5-dimethylpiperidin-4-yl)-3-fluoro-5-methylphenyl)-1H-pyrrolo[2,3-b]pyridine-3-carbonitrile] | pIC50 (LATS1; biochemical kinase inhibition): 8.29; pIC50 (AKT; biochemical kinase inhibition): 6.65; pIC50 (LATS2; biochemical kinase inhibition): 8.47 |
| 7.84 | 6.04 | 8.08 | Cc1cc(-c2ccnc3[nH]cc(F)c23)cc(F)c1C1(O)[C@H](C)CN(C2CCOC2)C[C@@H]1C (stereo partly drawn) [Compound 34, (3S,5R)-4-(2-fluoro-4-(3-fluoro-1H-pyrrolo[2,3-b]pyridin-4-yl)-6-methylphenyl)-3,5-dimethyl-1-(tetrahydrofuran-3-yl)piperidin-4-ol] | – |
| 7.82 | 6.42 | 7.70 | NCc1ccc(-c2ccnc3[nH]ccc23)cc1-c1ccccc1 [Compound 246, (5-(1H-pyrrolo[2,3-b]pyridin-4-yl)-[1,1′-biphenyl]-2-yl)methanamine] | – |
| – | – | – | CN(C)CC(=O)NCC(O)(c1ccc(Cl)cc1)c1ccc(-c2ccnc3[nH]ccc23)cc1 (stereo not drawn) [Compound 1019, N-(2-(4-(1H-pyrrolo[2,3-b]pyridin-4-yl)phenyl)-2-(4-chlorophenyl)-2-hydroxyethyl)-2-(dimethylamino) acetamide] | pIC50 (LATS1; [2]): 8.40; pIC50 (AKT; [2]): 8.27; pIC50 (LATS2; [2]): 8.25 |
| 7.71 | 5.23 | 8.37 | Cc1cc(-c2ccnc3[nH]cc(F)c23)cc(F)c1[C@@]1(O)[C@H](C)CN(C(=O)C2(N)CC(F)(F)C2)C[C@@H]1C [Compound 62, (1-amino-3,3-difluorocyclobutyl) ((3S,4s,5R)-4-(2-fluoro-4-(3-fluoro-1H-pyrrolo[2,3-b]pyridin-4-yl)-6-methylphenyl)-4-hydroxy-3,5-dimethylpiperidin-1-yl)methanone] | – |
| 8.00 | 6.32 | 8.07 | C[C@@H]1CN(C)C[C@H](C)[C@@]1(O)c1c(F)cc(-c2ccnc3[nH]cc(F)c23)cc1F [Compound 37, (3S,4s,5R)-4-(2,6-difluoro-4-(3-fluoro-1H-pyrrolo[2,3-b]pyridin-4-yl)phenyl)-1,3,5-trimethylpiperidin-4-ol] | – |
| 8.05 | 6.12 | 7.68 | Clc1cc(-c2ccnc3[nH]ccc23)ccc1C1CCNCC1 [Compound 161, 4-(3-chloro-4-(piperidin-4-yl)phenyl)-1H-pyrrolo[2,3-b]pyridine] | – |
| – | – | – | O=C(CP(=O)(O)O)NCC(O)(c1ccc(Cl)cc1)c1ccc(-c2ccnc3[nH]ccc23)cc1 (stereo not drawn) [Compound 1022, (2-((2-(4-(1H-pyrrolo[2,3-b]pyridin-4-yl)phenyl)-2-(4-chlorophenyl)-2-hydroxyethyl)amino)-2-oxoethyl) phosphonic acid] | pIC50 (LATS1; [2]): 8.02; pIC50 (AKT; [2]): 8.51; pIC50 (LATS2; [2]): 7.92 |
| 5.30 | 5.47 | 5.90 | NCc1ccc(-c2ccnc3[nH]ccc23)c(C(F)(F)F)c1 [Compound 286, (4-(1H-pyrrolo[2,3-b]pyridin-4-yl)-3-(trifluoromethyl)phenyl) methanamine] | – |
| 8.40 | 6.57 | 8.02 | CC(C)(N)c1ccc(-c2ccnc3[nH]cc(Br)c23)cc1-c1ccccc1 [Compound 207, 2-(5-(3-bromo-1H-pyrrolo[2,3-b]pyridin-4-yl)-[1,1′-biphenyl]-2-yl)propan-2-amine] | – |
| 7.30 | 5.55 | 8.00 | NCc1ccc(-c2ccnc3[nH]cc(-c4ccccc4F)c23)cc1 [Compound 248, (4-(3-(2-fluorophenyl)-1H-pyrrolo[2,3-b]pyridin-4-yl)phenyl) methanamine] | – |
| 5.31 | 5.05 | 5.62 | N#Cc1cc(C2CCNCC2)ccc1-c1ccnc2[nH]ccc12 [Compound 174, 5-(piperidin-4-yl)-2-(1H-pyrrolo[2,3-b]pyridin-4-yl)benzonitrile] | – |
| 7.54 | 7.60 | 7.70 | Cc1cnc(C2(c3ccc(-c4ccnc5[nH]cc(F)c45)cc3)CCNCC2)o1 [Compound 192, 2-(4-(4-(3-fluoro-1H-pyrrolo[2,3-b]pyridin-4-yl)phenyl)piperidin-4-yl)-5-methyloxazole] | – |
| 7.00 | 5.81 | 6.53 | C[C@@H]1CN(C)C[C@H](C)[C@@]1(O)c1ccc(-c2ccnc3[nH]ccc23)nc1 [Compound 40, (3R,4s,5S)-4-(6-(1H-pyrrolo[2,3-b]pyridin-4-yl)pyridin-3-yl)-1,3,5-trimethylpiperidin-4-ol] | – |
| < 5.00 | < 5.00 | < 5.00 | CC(C)(C)OC(=O)N1CCC(c2ccc(-c3ccnc4[nH]cc(F)c34)cc2)(c2nnco2)CC1 [Compound 196, tert-butyl 4-(4-(3-fluoro-1H-pyrrolo[2,3-b]pyridin-4-yl)phenyl)-4-(1,3,4-oxadiazol-2-yl)piperidine-1-carboxylate] | – |
